The values below come from patent US20230364063A1, “ORAL PHARMACEUTICAL COMPOSITION AND METHOD FOR PRODUCING SAME” (ARTham Therapeutics Inc., priority 2020, published 2023).

Series [1] can be described thus: pH-dependent dissolution profile (equilibrium solubility) of ART-001 in buffers pH 1 to 10, HPLC. Format: physicochemical. The conditions noted are these: for solubility: aqueous buffer, thermodynamic from solid, room temperature. As to the method: The dissolution profile of ART-001 in various pH environments was tested by the following procedure. Excess amounts of ART-001 were added to 50 mM phosphate buffer (pH 1, 2, 7, and 8), citrate buffer (pH 3, 4, 5, and 6), boric acid buffer (pH 9), and bicarbonate buffer (pH 10), with the pH adjusted variously in the range of from pH 1 to pH 10 with a 6N HCl or 10N sodium hydroxide solution, and stirred at room temperature. When the dissolved state reached equilibrium, a fixed amount of each sample was taken. After centrifugation at 1000 rpm for 10 minutes, the supernatant was collected and measured by HPLC. The pH at the beginning and end of dissolution were also measured and recorded.

For series [2], the system named is advanced solid tumors. The conditions noted are these: Phase I, patients with advanced solid tumors; cited from earlier work.
For series [3] the following is noted: healthy adults, cited from earlier work.
The conditions of series [4]: cited from earlier work.
For series [5] the following is noted: cited from earlier work. This is another data set of the same source.
The conditions of series [6]: cited from earlier work. This is another data set of the same source.

≈ marks a conversion by molar mass, not a printed value. Like-named read-outs stand apart in the source and are kept apart here.

Regarding `Nc1nc2cc(-c3ccc4ncc(C(=O)N5CCOCC5)n4c3)ccc2o1` [ART-001, Serabelisib], the solubility was 2.18 µg/mL (≈ 6 µM) in series [1] (bicarbonate buffer, start pH 10.00, end pH 10.07, read-out: Solubility); 1.3 µg/mL (≈ 3.58 µM) in series [1] (boric acid buffer, start pH 9.00, end pH 9.16, read-out: Solubility); 36.8 µg/mL (≈ 101 µM) in series [1] (citrate buffer, start pH 3.17, end pH 3.33, read-out: Solubility); 5.7 µg/mL (≈ 15.7 µM) in series [1] (citrate buffer, start pH 4.00, end pH 4.19, read-out: Solubility); 1.7 µg/mL (≈ 4.68 µM) in series [1] (citrate buffer, start pH 5.03, end pH 5.2, read-out: Solubility); 1.3 µg/mL (≈ 3.58 µM) in series [1] (citrate buffer, start pH 5.95, end pH 6.11, read-out: Solubility). The solubility in series [1] (citrate, phosphate, boric acid and bicarbonate buffers, pH 6 or higher, read-out: solubility under high pH conditions) is 1.3 µg/mL (≈ 3.58 µM); in series [1] (phosphate buffer, pH 2.5 or lower, read-out: solubility under low pH conditions) it was 312 to 10000 µg/mL (≈ 859 to 27500 µM); in series [1] (phosphate buffer, start pH 1.04, end pH 1.33, read-out: Solubility), 1140 µg/mL (≈ 3130 µM); in series [1] (phosphate buffer, start pH 2.09, end pH 2.56, read-out: Solubility), 312 µg/mL (≈ 859 µM); in series [1] (phosphate buffer, start pH 6.81, end pH 6.97, read-out: Solubility), 1.2 µg/mL (≈ 3.3 µM); in series [1] (phosphate buffer, start pH 8.15, end pH 8.3, read-out: Solubility), 1.3 µg/mL (≈ 3.58 µM). For the same compound, the “solubility under high pH conditions when the solubility under low pH conditions is considered to be 100%” value in series [1] (pH 6 or higher vs pH 2.5 or lower) was “about 4%”. Moreover, the therapeutic efficacy entry in series [2] is given as “limited therapeutic efficacy”. Further, in series [2], the variability in pharmacokinetics result was “high degree of variability”. Besides, the “absorption of ART-001” value in series [3] (co-administration of proton pump inhibitor (lansoprazole), stomach pH neutral) is “markedly decreased”. In series [3], the pharmacokinetic variability entry is reported as “significant pharmacokinetic variability”. In addition, the “solubility in acidic solutions” value in series [4] (acidic solutions) is reported as “high solubility”. The “solubility in neutral to basic solutions” value in series [4] (neutral to basic solutions) was “extremely low solubility”.

Take `Cc1nc(NC(=O)N2CCC[C@H]2C(N)=O)sc1-c1ccnc(C(C)(C)C(F)(F)F)c1` [alperisib, Alpelisib]: the “pharmacokinetics in clinical studies” value in series [5] is given as “variations in pharmacokinetics”. In addition, the solubility result in series [6] was “pH-dependent solubility”.
